Here are results for two molecules from ChEMBL document CHEMBL1135076, “Leishmanicidal activity of some aliphatic diamines and amino-alcohols” (Bioorg Med Chem Lett, 2002).

Type in all cases: functional, organism-based
In assay [1] the test system is Leishmania braziliensis. Nature of the assay: Tested in vitro for leishmanicidal activity against Leishmania brasiliensis (2903) at the concentration of 10 ug/mL;++ indicates 80-90% lysis of parasites.
Assay [2] has as its system Leishmania donovani. Nature of the assay: Tested in vitro for leishmanicidal activity against Leishmania donovani (PP75) at the concentration of 10 ug/mL++ indicates 80-90% lysis of parasites.
Assay [3] has as its system Leishmania donovani. Put plainly: In vitro for leishmanicidal activity against Leishmania donovani (PP75) at the concentration of 100 ug/mL.
Assay [4] concerns Leishmania donovani. Nature of the assay: In vitro for leishmanicidal activity against Leishmania donovani (PP75) at the concentration of 50 ug/mL.
In assay [5] the test system is Leishmania amazonensis. Nature of the assay: In vitro for leishmanicidal activity against Leishmania amazonensis (PH8) at the concentration of 100 ug/mL.
Assay [6] concerns Leishmania amazonensis. Put plainly: In vitro for leishmanicidal activity against Leishmania amazonensis (PH8) at the concentration of 50 ug/mL.
Assay [7] has as its system Leishmania braziliensis. Nature of the assay: In vitro for leishmanicidal activity against Leishmania brasiliensis (2903) at the concentration of 100 ug/mL.
In assay [8] the test system is Leishmania amazonensis. Nature of the assay: Tested in vitro for leishmanicidal activity against Leishmania amazonensis (PH8) at the concentration of 10 ug/mL; ++ indicates 80-90% lysis of parasites.
Assay [9] has as its system Leishmania braziliensis. Put plainly: Tested in vitro for leishmanicidal activity against Leishmania brasiliensis (2903) at the concentration of 10 ug/mL; ++ indicates 80-90% lysis of parasites.
The test system of assay [10] is Leishmania donovani. Put plainly: Tested in vitro for leishmanicidal activity against Leishmania donovani (PP75) at the concentration of 10 ug/mL;++ indicates 80-90% lysis of parasites.

On to `CCCCCCCCCCCCCCC(N)CN(CC(=O)OCC)CC(=O)OCC` (stereo not given), for which the Activity is 80-90% lysis of parasites in the assay on Leishmania braziliensis [1]; 80-90% lysis of parasites in the assay on Leishmania donovani [2]; “+” with Leishmania donovani [3]; “+” with Leishmania donovani [4]; “+” with Leishmania amazonensis [5]; “+” in the assay on Leishmania amazonensis [6]. For the same molecule, the values for the Activity result with Leishmania braziliensis [7] and in the assay with Leishmania amazonensis [8] were “+” and 80-90% lysis of parasites, respectively.
For the molecule `CCCCCCCCCCCCCCC(CO)NCC` (stereo not given), the Activity in the assay on Leishmania braziliensis [9] was 80-90% lysis of parasites; in the assay with Leishmania donovani [10], 80-90% lysis of parasites; with Leishmania donovani [3], “+”; with Leishmania donovani [4], “+”; in the assay with Leishmania amazonensis [5] it was “+”; with Leishmania amazonensis [6], “+”. In the assay with Leishmania amazonensis [8], the Activity is recorded as 80-90% lysis of parasites.
